# Reference: publication PMC6831561, “Pharmacological and Behavioral Effects of the Synthetic Cannabinoid AKB48 in Rats” (Frontiers in Neuroscience, 2019)
# Assays:
# hepatocyte model = conditions: ref Gandhi et al., 2013; cited from earlier work
# rats = test: Cardiorespiratory analysis (heart rate, breath rate, SpO2); assay type: in vivo
# Text: During the experiment, the rat was allowed to freely move in a cage (40 × 40 × 30 cm) with no access to food and water while being monitored by the sensor collar through MouseOx Plus (STARR Life Sciences® Corp., Oakmont, PA, United States) software. In the first hour of acclimation, a fake collar similar to the real one used in the test but with no sensor was used to minimize the potential stress during the experiment. Then, the real collar (with sensor) was replaced, and baseline parameters were monitored for 60 min.
# [1] = AKB48 highest dose (3 mg/kg), after 60 min from injection
compound,measurement,setting,value
"CCCCCn1nc(C(=O)NC23CC4CC(CC(C4)C2)C3)c2ccccc21 [AKB48, N-(1-adamantyl)-1-pentyl-1H-indazole-3-carboxamide]",number of major metabolites,hepatocyte model,11
same,duration of the heart rate decrease,rats; AKB48 3.0 mg/kg i.p.,about 90 min
same,time at which the heart rate effect disappeared,rats; AKB48 3.0 mg/kg i.p.,180 min
same,reduction of heart rate,"rats; AKB48 3.0 mg/kg i.p., after 30 min from injection",~36%
same,time at which the SpO2 effect disappeared,rats; AKB48 highest dose (3 mg/kg),120 min
same,time at which the breath rate effect disappeared,rats; AKB48 highest dose (3 mg/kg),120 min
same,reduction of SpO2 saturation,rats; [1],~10%
same,reduction of breath rate,rats; [1],~30%
